In patent publication US5180739A, “Use of 3-oxygermylpropionic acid to treat and prevent diabetes-dependent type of autoimmune diseases” (Sanwa Kagaku Kenkyusho Co., Ltd., priority 1990, dated 1993):

Experiments:
mice = assay: Acute toxicity test, oral administration (LD50), mice; format: in vivo
Procedure: (§1) Acute and subacute (chronic) toxicity tests were performed using SD rats and mice which has received 3-oxygermylpropionic acid represented by Formula I (hereinafter referred to Compound a) and the above-mentioned primary composition (hereinafter called Composition b).
(§2) For experimentation, a group of 8-10 animals were used.
(§3) Oral administration (no significant
(§4) difference between Compound -a and […]

SD rats = assay: Acute toxicity test, oral administration (LD50), rats; format: in vivo
Procedure: as §1, §2, §3, §4

SD rats and mice = assay: Acute toxicity test, comparison and general symptoms; format: in vivo
Procedure: as §1, §2

SD male rats = assay: Subacute toxicity test, oral, over 3 months; format: in vivo
Procedure: as §1, §2
Over 3 months, Compound a and Composition b were orally administered to two groups of SD male rats at doses of 256, 380, 640, 1300, 1600 and 4000 mg/kg/day to determined which dose to have no toxic influence at all and which dose to induce positive poisoning.

[1] = test system: mice with streptozosin-induced diabetes; assay: Concentration of glucose in the blood of mice with STZ-induced diabetes; format: in vivo, AKR/J1 mouse; conditions: rejection rate of 5%
Procedure: (§5) Continuous 5-day administration of streptozocin (STZ) to an AKR/J1 line mice, that ia an inbred mice with a spontaneous symptom of leukemia, can cause it to take a disease similar to human Type I diabetes (dependent upon insulin). Tests were performed for the purpose of going into influence Compound a and Composition b have on such a mice with streptozosin-induced diabetes.
(§6) Streptozocin (STZ) was continuously administrated to the abdominal cavity of a (masculine) mouse belonging to AKR/J1 at a dose of 40 mg/kg for 5 days to induce an increase in the concentration of glucose in the blood and a decrease in the amount of insulin in the pancreas.
(§7) With Compound a dissolved in a phosphate buffer solution with pH 7.4, the concentration of glucose in the blood was measured at 7 days, 14 days and 21 days from STZ dosing, using a GOD-PAP kit (made by Boehringer Mannheim) based on the glucose oxidase process for measurement. In addition, the amount of insulin in the pancreas, extracted by the acid-ethanol process, was assayed with a radio immuno assay kit (made by Pharmacia Aktiebolag) based on an immunoassay process making use of a competitive reaction by ^125 I-labeled insulin (see Soeldner, JS & Slone, D, "Diabetes", Vol. 14, pp. 771-779, 1985).
(§8) A similar mouse was caused to develop STZ-induced diabetes in a similar manner as referred to in Test Example 1.
(§9) A solution of Compound a in a phosphate buffer with pH 7.4 was continuously administered to the abdominal cavity of the animal at 5 mg/kg over 7 days from STZ dosing.
(§10) At 7 days, 14 days and 21 days from STZ dosing, the concentration of glucose in the blood and the amount of insulin in the pancreas were measured in similar manners as mentioned in Test Example 1.
(§11) A solution of Compound a in a phosphate buffer with pH 7.4 was continuously administered to the abdominal cavity of the animal at 5 mg/kg 15 days from the 7th day after STZ dosing.

[2] = test system: mice with streptozosin-induced diabetes; assay: Amount of insulin in the pancreas of mice with STZ-induced diabetes; format: in vivo, AKR/J1 mouse; conditions: rejection rate of 5%
Procedure: as §5, §6, §7, §8, §9, §10, §11

Langerhans' islands = assay: Degree of cellular infiltration in the Langerhans' islands of mice with STZ-induced diabetes; format: in vivo, AKR/J1 mouse; conditions: for Degrees of pancreatitis, 0 (0%) / Degrees of pancreatitis, I (0-25%) / Degrees of pancreatitis, II (25-50%) / Degrees of pancreatitis, III (50-100%) / Incidence of pancreatitis (I-III): STZ + a, at 21 days; for Incidence of pancreatitis (I-III): STZ + buffer 68
Procedure: as §5
Similar mice were caused to develop STZ-induced diabetes in a similar manner as described in Test Example 1.
A solution of Compound a in a similar phosphate buffer with pH 7.4 as used in Test Example 1 was continuously administrated at a rejection rate of 5% to the abdominal cavities according to similar dosing schemes as applied in Test Examples 1, 2 and 3.
At 21 days from STZ dosing, the degree of cellular infiltration in the Langerhans' islands were assayed under an optical microscope.

[3] = Japanese Patent Kokai Publication No. Sho 61-161123; cited from earlier work

Question: Which results are given for 3-oxygermylpropionic acid [Compound a]?
Answer: LD50 (mice; female): ≥ 5,800 mg/kg; LD50 (mice; male): ≥ 5,600 mg/kg; LD50 (SD rats; female): ≥ 7,050 mg/kg; LD50 (SD rats; male): ≥ 7,700 mg/kg; general symptoms (SD rats and mice; in vivo): general symptoms of appeasement, diarrhea, vomiting and typhlectasis; difference in acute toxicity between Compound a and Composition b (SD rats and mice; oral, mice and rats): no significant difference; dose inducing positive poisoning (SD male rats; SD male rats, oral, 3 months, daily): 1600 mg/kg; reversibility of toxic symptoms without drug treatment (SD male rats; rat, in vivo): Toxic symptoms then disappeared; dose with no toxic influence whatsoever (SD male rats; rat, in vivo, po, 131400 min): 256 mg/kg; concentration of glucose in the blood (increased by STZ) ([1]; Test Example 1, 21 days from dosing, FIG. 1(a)): significant improvements; concentration of glucose in the blood (increased by STZ) ([1]; Test Example 2, 5 mg/kg to the abdominal cavity over 7 days from STZ dosing, 21 days from dosing, FIG. 2(a)): significant improvements; concentration of glucose in the blood (increased by STZ) ([1]; Test Example 3, 5 mg/kg to the abdominal cavity 15 days from the 7th day after STZ dosing, 21 days from dosing, FIG. 3(a)): significant improvements; amount of insulin in the pancreas (decreased by STZ) ([2]; Test Example 1, 21 days from dosing, FIG. 1(b)): significant improvements; amount of insulin in the pancreas (decreased by STZ) ([2]; Test Example 2, 5 mg/kg to the abdominal cavity over 7 days from STZ dosing, 21 days from dosing, FIG. 2(b)): significant improvements; amount of insulin in the pancreas (decreased by STZ) ([2]; Test Example 3, 5 mg/kg to the abdominal cavity 15 days from the 7th day after STZ dosing, 21 days from dosing): significant improvements; Degrees of pancreatitis, 0 (0%) (Langerhans' islands; 1-7 days): 70%; Degrees of pancreatitis, I (0-25%) (Langerhans' islands; 1-7 days): 23%; Degrees of pancreatitis, II (25-50%) (Langerhans' islands; 1-7 days): 4%; Degrees of pancreatitis, III (50-100%) (Langerhans' islands; 1-7 days): 3%; Incidence of pancreatitis (I-III) (Langerhans' islands; 1-7 days): 30%; Degrees of pancreatitis, 0 (0%) (Langerhans' islands; 1-21 days (first line)): 70%; Degrees of pancreatitis, I (0-25%) (Langerhans' islands; 1-21 days (first line)): 25%; Degrees of pancreatitis, II (25-50%) (Langerhans' islands; 1-21 days (first line)): 4%; Degrees of pancreatitis, III (50-100%) (Langerhans' islands; 1-21 days (first line)): 1%; Incidence of pancreatitis (I-III) (Langerhans' islands; 1-21 days (first line)): 30%; Degrees of pancreatitis, 0 (0%) (Langerhans' islands; third line, 1-21 days): 68%; Degrees of pancreatitis, I (0-25%) (Langerhans' islands; third line, 1-21 days): 30%; Degrees of pancreatitis, II (25-50%) (Langerhans' islands; third line, 1-21 days): 1%; Degrees of pancreatitis, III (50-100%) (Langerhans' islands; third line, 1-21 days): 1%; Incidence of pancreatitis (I-III) (Langerhans' islands; third line, 1-21 days): 32%; infiltrated cells in the Langerhans' islands (increased by STZ dosing) (Langerhans' islands; Test Example 4, 21 days from dosing): successfully decreased the infiltrated cells; immunity-accommodative actions [3]: immunity-accommodative actions
